Test system: not listed separately
Assay: ADME solubility determination at pH 2.0 and pH 7.4
Assay type: physicochemical
Settings: aqueous buffer, thermodynamic from solid; PBS pH 2.0, shaken at 25° C. for 24 hours, LC-MS/MS; read-out: Solubility at pH 2.0
In short: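 Dried residues of 10 mM DMSO stocks were shaken in PBS pH 7.4 or pH 2.0 for 24 hours at 25° C. and 1,100 rpm. After centrifugation, supernatants were quantified by LC-MS/MS against a standard of known concentration, applying a dilution factor.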
`COc1ccccc1-c1ncc2cnn(Cc3ccc(-c4nc(C(F)(F)F)cn4C)cc3)c2n1` [Example 2, 6-(2-methoxyphenyl)-1-(4-(1-methyl-4-(trifluoromethyl)-1H-imidazol-2-yl)benzyl)-1H-pyrazolo[3,4-d]pyrimidine] gave a solubility at 24 h of over 10 µM. For `CCn1cc(C(F)(F)F)nc1-c1ccc(Cn2ncc3cnc(-c4c(OC)ncnc4OC)nc32)cc1` [Example 87], the solubility at 24 h was over 10 µM.

Same assay, conditions: aqueous buffer, thermodynamic from solid; PBS pH 7.4, shaken at 25° C. for 24 hours, LC-MS/MS; read-out: Solubility at pH 7.4
`COc1ccccc1-c1ncc2cnn(Cc3ccc(-c4nc(C(F)(F)F)cn4C)cc3)c2n1` [Example 2, 6-(2-methoxyphenyl)-1-(4-(1-methyl-4-(trifluoromethyl)-1H-imidazol-2-yl)benzyl)-1H-pyrazolo[3,4-d]pyrimidine] showed a solubility at 24 h of under 10 µM. With `CCn1cc(C(F)(F)F)nc1-c1ccc(Cn2ncc3cnc(-c4c(OC)ncnc4OC)nc32)cc1` [Example 87] the solubility at 24 h was over 10 µM.

Test system: not listed separately
Assay: Liver microsomal stability, human liver microsomes
Assay type: in vitro ADME
Settings: 1 μM compound, NADPH, read-out: t1/2 (min) in HLM
In short: (§1)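 Compound (1 μM final) was incubated with prewarmed human or rat liver microsomes (1 mg/mL in 100 mM phosphate master mix) plus NADPH; aliquots at 0.5–30 minutes were quenched in cold acetonitrile and quantified by LC-MS/MS. Half-life came from the ln(% remaining) versus time slope, converted to CLint (μL/min/mg prot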
For `COc1ccccc1-c1ncc2cnn(Cc3ccc(-c4nc(C(F)(F)F)cn4C)cc3)c2n1` [Example 2, 6-(2-methoxyphenyl)-1-(4-(1-methyl-4-(trifluoromethyl)-1H-imidazol-2-yl)benzyl)-1H-pyrazolo[3,4-d]pyrimidine], the half-life at 1 μM was under 25 min. Work on `CCn1cc(C(F)(F)F)nc1-c1ccc(Cn2ncc3cnc(-c4c(OC)ncnc4OC)nc32)cc1` [Example 87] yielded a half-life at 1 μM of over 25 min.

Test system: not listed separately
Assay: Liver microsomal stability, rat liver microsomes
Assay type: in vitro ADME
Settings: 1 μM compound, NADPH, read-out: t1/2 (min) in RLM
In short: as §1
For `COc1ccccc1-c1ncc2cnn(Cc3ccc(-c4nc(C(F)(F)F)cn4C)cc3)c2n1` [Example 2, 6-(2-methoxyphenyl)-1-(4-(1-methyl-4-(trifluoromethyl)-1H-imidazol-2-yl)benzyl)-1H-pyrazolo[3,4-d]pyrimidine], the half-life at 1 μM was under 25 min. `CCn1cc(C(F)(F)F)nc1-c1ccc(Cn2ncc3cnc(-c4c(OC)ncnc4OC)nc32)cc1` [Example 87] gave a half-life at 1 μM of over 25 min.

Target: USP1/UAF1 (Homo sapiens (Human), UniProt O94782)
Sequence (O94782 whole entry): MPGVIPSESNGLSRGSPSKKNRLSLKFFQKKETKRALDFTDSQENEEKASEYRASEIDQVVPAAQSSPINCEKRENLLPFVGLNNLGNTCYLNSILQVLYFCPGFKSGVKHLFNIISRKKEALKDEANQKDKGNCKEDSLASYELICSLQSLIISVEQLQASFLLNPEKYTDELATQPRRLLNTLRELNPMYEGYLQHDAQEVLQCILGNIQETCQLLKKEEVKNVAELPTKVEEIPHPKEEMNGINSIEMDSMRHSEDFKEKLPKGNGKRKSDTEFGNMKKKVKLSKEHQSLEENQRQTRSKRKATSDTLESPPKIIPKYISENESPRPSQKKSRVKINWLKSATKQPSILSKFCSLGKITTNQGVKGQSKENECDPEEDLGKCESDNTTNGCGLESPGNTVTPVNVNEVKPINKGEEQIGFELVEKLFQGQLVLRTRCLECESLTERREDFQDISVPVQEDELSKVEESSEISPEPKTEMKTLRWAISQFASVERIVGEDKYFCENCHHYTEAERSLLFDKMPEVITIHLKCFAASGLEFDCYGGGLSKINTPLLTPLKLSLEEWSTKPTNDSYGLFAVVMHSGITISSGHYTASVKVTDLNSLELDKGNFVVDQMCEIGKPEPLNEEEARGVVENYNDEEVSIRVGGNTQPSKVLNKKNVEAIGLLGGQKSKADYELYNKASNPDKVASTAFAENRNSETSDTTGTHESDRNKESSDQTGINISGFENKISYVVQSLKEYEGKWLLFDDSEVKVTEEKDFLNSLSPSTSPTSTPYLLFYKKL
Sequence (Q8TAF3 whole entry partner): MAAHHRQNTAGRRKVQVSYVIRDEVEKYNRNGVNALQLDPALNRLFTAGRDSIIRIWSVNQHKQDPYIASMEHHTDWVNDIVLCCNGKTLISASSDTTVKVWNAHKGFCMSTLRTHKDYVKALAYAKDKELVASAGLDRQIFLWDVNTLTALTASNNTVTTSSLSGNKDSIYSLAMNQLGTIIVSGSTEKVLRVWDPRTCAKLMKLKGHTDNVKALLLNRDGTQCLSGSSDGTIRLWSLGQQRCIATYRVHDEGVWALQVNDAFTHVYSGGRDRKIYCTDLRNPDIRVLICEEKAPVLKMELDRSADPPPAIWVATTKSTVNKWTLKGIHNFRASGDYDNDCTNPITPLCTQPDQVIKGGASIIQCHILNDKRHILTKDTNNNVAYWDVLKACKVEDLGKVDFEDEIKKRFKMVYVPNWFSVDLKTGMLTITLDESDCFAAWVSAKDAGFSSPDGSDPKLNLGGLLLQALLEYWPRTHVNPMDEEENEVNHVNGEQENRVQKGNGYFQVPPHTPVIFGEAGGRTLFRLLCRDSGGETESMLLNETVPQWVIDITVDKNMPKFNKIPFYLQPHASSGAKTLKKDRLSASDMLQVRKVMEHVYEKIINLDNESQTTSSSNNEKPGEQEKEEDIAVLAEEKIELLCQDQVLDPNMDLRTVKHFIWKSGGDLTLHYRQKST
Assay: Deubiquitination assay for USP1/UAF1 activity (ubiquitin-rhodamine 110)
Assay type: biochemical
Settings: Table 2; 0.05 nM USP1/UAF1, 150 nM ubiquitin-rhodamine
Procedure: Certain Compounds of the Disclosure were assessed for USP1/UAF1 activity in a Ubiquitin Rhodamine assay modified from those described previously.
Deubiquitinase activity was measured using ubiquitin-rhodamine 110 as a substrate. Cleavage of the amide bond between rhodamine and the c-terminal glycine of ubiquitin yields an increase in fluorescence signal. The assay was conducted in 20 ul total volume of assay buffer (50 mM Tris-HCl, pH 7.8, 0.5 mM EDTA, 0.01% Bovine Serum Albumin, 1 mM DTT, 0.01% Tween-20), and 0.05 nM USP1/UAF1 enzyme.
Compounds, dissolved in DMSO were tested in dose response format, beginning at 10 uM.
Compounds depicted below were added to enzyme/assay buffer mix and incubated 10 min.
Data for all assay formats was calculated as percent inhibition compared with control wells. […] IC50 values were calculated using the standard four parameter curve fitting algorithm in either Prism GraphPad (La Jolla, Calif.) software, or Collaborative Drug Discovery (Burlingame, Calif.) CDD Vault.
Compound `Cc1cccc(S(C)(=O)=O)c1-c1ncc2cnn(Cc3ccc(-c4nc(C(F)(F)F)cn4C)cc3)c2n1` has an IC50 of 100 to 200 nM. In the case of `COc1ncnc(C2CC2)c1-c1ncc2cnn(Cc3ccc(-n4nc(C(F)(F)F)cc4C)cc3)c2n1` [drawing 723], the IC50 is reported as under 10 nM. Compound `CC(C)c1ccccc1-c1ncc2ncn(Cc3ccc(-c4nc(C(F)(F)F)cn4C)cc3)c2n1` [drawing 719] has an IC50 of 10 to 100 nM. Work on `COc1cccc(C2CC2)c1-c1ncc2cnn(Cc3ccc(-c4nc(C(F)(F)F)cn4C)cc3)c2n1` [drawing 724] yielded an IC50 of under 10 nM. `CC(C)c1ccccc1-c1ncc2cnn(Cc3ccc(-c4nc(C(F)(F)F)cn4C)cc3)c2n1` [drawing 730] gave an IC50 of under 10 nM. `Cn1cc(C(F)(F)F)nc1-c1ccc(Cn2ncc3cnc(-c4ccccc4S(C)(=O)=O)nc32)cc1` [drawing 707] gave an IC50 of 100 to 200 nM. With `CC(C)c1c(F)cccc1-c1ncc2cnn(Cc3ccc(-c4nc(C(F)(F)F)cn4C)cc3)c2n1` [drawing 728] the IC50 was under 10 nM. Work on `COc1ccccc1-c1ncc2cnn(Cc3ccc(-c4nc(C(F)(F)F)cn4C)cc3)c2n1` [drawing 715] yielded an IC50 of 10 to 100 nM. In the case of `COc1cnccc1-c1ncc2cnn(Cc3ccc(-c4nc(C(F)(F)F)cn4C)cc3)c2n1`, the IC50 is reported as over 200 nM. `CC(C)c1ccccc1-c1ncc2cnn(C(C)c3ccc(-c4nc(C(F)(F)F)cn4C)cc3)c2n1` (stereo not drawn) [drawing 726] gave an IC50 of under 10 nM. In the case of `COc1nccc(C)c1-c1ncc2cnn(Cc3ccc(-c4nc(C(F)(F)F)cn4C)cc3)c2n1` [drawing 711], the IC50 is reported as 10 to 100 nM. `COc1ncnc(C2CC2)c1-c1ncc2cnn(Cc3ccc(-c4nc(C(F)(F)F)cn4C)cc3)c2n1` [drawing 720] showed an IC50 of 10 to 100 nM. Compound `CSc1cccc(C)c1-c1ncc2cnn(Cc3ccc(-c4nc(C(F)(F)F)cn4C)cc3)c2n1` [drawing 722] has an IC50 of 10 to 100 nM.

Same assay, conditions: Table 3; 0.05 nM USP1/UAF1, 150 nM ubiquitin-rhodamine
With `COc1ncnc(C)c1-c1ncc2cnn(Cc3ccc(-n4nc(C(F)(F)F)cc4C)cc3)c2n1` [drawing 784] the IC50 was 100 to 200 nM. In the case of `CCn1cc(C(F)(F)F)nc1-c1ccc(Cn2ncc3cnc(-c4c(OC)cnn4C4CC4)nc32)cc1` [drawing 761], the IC50 is reported as 10 to 100 nM. `COc1ncnc(C2(C)CC2)c1-c1ncc2cnn(Cc3ccc(-c4nc(C(F)(F)F)cn4C)cc3)c2n1` [drawing 769] gave an IC50 of 10 to 100 nM. In the case of `COc1ncnc(C2CC2)c1-c1ncc2cnn(Cc3ccc(-c4cn(C)c(C(F)(F)F)n4)cc3)c2n1` [drawing 736], the IC50 is reported as 10 to 100 nM. Compound `COc1ncnc(C)c1-c1ncc2cnn(Cc3ccc(-n4nc(C(F)(F)F)cc4OC)cc3)c2n1` has an IC50 of 100 to 200 nM. Work on `Cc1cc(C(F)(F)F)nn1-c1ccc(Cn2ncc3cnc(-c4cccnc4C#N)nc32)cc1` [drawing 797] yielded an IC50 of over 200 nM. `CCn1cc(C(F)(F)F)nc1-c1ccc(Cn2ncc3cnc(-c4c(OC)ncnc4C4CC4)nc32)cn1` [drawing 767] gave an IC50 of 10 to 100 nM. `COc1ncnc(C2CC2)c1-c1ncc2cnn(Cc3ccc(-n4nc(C(F)(F)F)cc4OC)nc3)c2n1` [drawing 768] gave an IC50 of 10 to 100 nM. For `COc1ncnc(OC)c1-c1ncc2cnn(Cc3ccc(-c4nc(C(F)(F)F)cn4C)cc3)c2n1` [drawing 766], the IC50 was 10 to 100 nM. For `COc1ncnc(C2CC2)c1-c1ncc2cnn(Cc3ccc(-c4nc(C(F)(F)F)c[nH]4)cc3)c2n1` [drawing 765], the IC50 was 10 to 100 nM. Work on `CSc1ncnc(C)c1-c1ncc2cnn(Cc3ccc(-n4nc(C(F)(F)F)cc4C)cc3)c2n1` [drawing 779] yielded an IC50 of 10 to 100 nM. Work on `CCn1cc(C(F)(F)F)nc1-c1ccc(Cn2ncc3cnc(-c4c(OC5CCC5)ncnc4C4CC4)nc32)cc1` [drawing 752] yielded an IC50 of 10 to 100 nM. Compound `CCn1cc(C(F)(F)F)nc1-c1ccc(Cn2ncc3cnc(-c4c(OC(C)(C)C)ncnc4C4CC4)nc32)cc1` [drawing 740] has an IC50 of 10 to 100 nM. Compound `COc1ncnc(C(C)(C)F)c1-c1ncc2cnn(Cc3ccc(-c4nc(C(F)(F)F)cn4C)cc3)c2n1` [drawing 772] has an IC50 of 10 to 100 nM. For `COc1ncnc(C2CC2)c1-c1ncc2cnn([C@H](C)c3ccc(-c4nc(C(F)(F)F)cn4C)cc3)c2n1` (single isomer, unassigned) [drawing 759], the IC50 was 10 to 100 nM. With `COc1ncnc(C2CC2)c1-c1ncc2cnn(Cc3ccc(-c4nc(C(F)F)nn4C)cc3)c2n1` the IC50 was over 200 nM. Work on `COc1ncnc(C2CC2)c1-c1ncc2cnn(Cc3ccc(-c4nc(C(F)(F)F)cn4C4COC4)cc3)c2n1` [drawing 770] yielded an IC50 of 10 to 100 nM. With `CCn1cc(C(F)(F)F)nc1-c1ccc([C@H](C)n2ncc3cnc(-c4c(OC)ncnc4C4CCC4)nc32)cc1` (single isomer, unassigned) [drawing 748] the IC50 was 10 to 100 nM. With `CCOc1cc(C(F)(F)F)nn1-c1ccc(Cn2ncc3cnc(-c4c(OC)ncnc4C4CC4)nc32)cc1` [drawing 735] the IC50 was under 10 nM. `COc1ncnc(C2CC2)c1-c1ncc2cnn(Cc3ccc(-c4nc(C(F)(F)F)cn4C)cc3F)c2n1` [drawing 758] showed an IC50 of 10 to 100 nM. With `COc1ncnc(C2CC2)c1-c1ncc2cnn(Cc3ccc(-c4nc(C(F)(F)F)cn4CCF)cc3)c2n1` [drawing 764] the IC50 was 10 to 100 nM. For `CCn1cc(C(F)(F)F)nc1-c1ccc([C@@H](C)n2ncc3cnc(-c4c(OC)ncnc4C4CC4)nc32)cc1` (single isomer, unassigned) [drawing 747], the IC50 was 10 to 100 nM. Work on `COc1ncnc(C2CC2)c1-c1ncc2cnn(Cc3ccc(-n4nc(C(F)F)cc4C)cc3)c2n1` [drawing 762] yielded an IC50 of 10 to 100 nM. Work on `COCCOc1ncnc(C2CC2)c1-c1ncc2cnn(Cc3ccc(-c4nc(C(F)(F)F)cn4C)cc3)c2n1` [drawing 787] yielded an IC50 of over 200 nM. Work on `CCn1cc(C(F)(F)F)nc1-c1ccc(Cn2ncc3cnc(-c4c(OC)ncnc4C4CC4)nc32)cc1` [drawing 738] yielded an IC50 of 10 to 100 nM.

Same assay, conditions: Table 4; 0.05 nM USP1/UAF1, 150 nM ubiquitin-rhodamine
In the case of `CCn1cc(C(F)(F)F)nc1-c1ccc([C@H](C)n2nc(OC)c3cnc(-c4c(OC)ncnc4C4CC4)nc32)cc1` [drawing 813], the IC50 is reported as 10 to 100 nM. `COc1ncnc(C2CC2)c1-c1ncc2c(OC)nn([C@@H](C)c3ccc(-c4nc(C(F)(F)F)cn4CCF)cc3)c2n1` [drawing 809] gave an IC50 of 10 to 100 nM. `COc1ncnc(C2CC2)c1-c1ncc2ccn(Cc3ccc(-c4nc(C(F)(F)F)cn4C(C)C)cc3)c2n1` showed an IC50 of under 10 nM. `COc1ncnc(C2CC2)c1-c1ncc2c(OC)nn(C(C)c3ccc(-c4nc(C(F)(F)F)cn4CCF)cc3)c2n1` (stereo not drawn) [drawing 812] showed an IC50 of 10 to 100 nM. Work on `COc1ncnc(C2CC2)c1-c1ncc2ccn(Cc3ccc(-c4nc(C(F)(F)F)cn4C)cc3)c2n1` [drawing 826] yielded an IC50 of 10 to 100 nM. Work on `CCn1cc(C(F)(F)F)nc1-c1ccc(Cn2nc(SCc3ccc(OC)cc3)c3cnc(-c4c(OC)ncnc4C4CC4)nc32)cc1` [drawing 801] yielded an IC50 of 10 to 100 nM. For `COc1ncnc(C2CC2)c1-c1ncc2c(OC)nn(Cc3ccc(-c4cn(C(C)C)c(C(F)(F)F)n4)cc3)c2n1` [drawing 807], the IC50 was 10 to 100 nM. `CCn1cc(C(F)(F)F)nc1-c1ccc(Cn2nc(OC)c3cnc(-c4c(OC)ncnc4C4CC4)nc32)cc1` [drawing 820] gave an IC50 of 10 to 100 nM. `CCn1cc(C(F)(F)F)nc1-c1ccc(Cn2nc(SC)c3cnc(-c4c(OC)ncnc4C4CC4)nc32)cc1` [drawing 800] showed an IC50 of 10 to 100 nM. `COc1ncnc(C2CC2)c1-c1ncc2nc(C)n(Cc3ccc(-n4nc(C(F)(F)F)cc4C)cc3)c2n1` [drawing 827] gave an IC50 of 10 to 100 nM. `COc1ncnc(C2CC2)c1-c1ncc2ncn(Cc3ccc(-n4nc(C(F)(F)F)cc4C)cc3)c2n1` [drawing 830] showed an IC50 of 100 to 200 nM. For `COc1ncnc(C2CC2)c1-c1ncc2ncn(Cc3ccc(-c4nc(C(F)(F)F)cn4C)cc3)c2n1` [drawing 831], the IC50 was 100 to 200 nM. In the case of `CCn1c(-c2ccc(Cn3nc(OC)c4cnc(-c5c(OC)ncnc5C5CC5)nc43)cc2)nc(C(F)(F)F)c1Br` [drawing 811], the IC50 is reported as 10 to 100 nM. For `COc1ncnc(C2CC2)c1-c1ncc2nnn(Cc3ccc(-c4nc(C(F)(F)F)cn4C)cc3)c2n1` [drawing 828], the IC50 was 10 to 100 nM. Work on `COc1ncnc(C2CC2)c1-c1ncc2nc(C3CC3)n(Cc3ccc(-n4nc(C(F)(F)F)cc4C)cc3)c2n1` [drawing 822] yielded an IC50 of 10 to 100 nM. `CCn1cc(C(F)(F)F)nc1-c1ccc(Cn2nc(OC)c3cnc(-c4c(OC)ncnc4C4CC4)nc32)cc1` [drawing 819] gave an IC50 of 10 to 100 nM. `CCn1cc(C(F)(F)F)nc1-c1ccc(Cn2nc(OC3CCC3)c3cnc(-c4c(OC)ncnc4C4CC4)nc32)cc1` [drawing 806] gave an IC50 of 10 to 100 nM.

From US11485736B2 (KSQ Therapeutics, Inc., priority 2018, dated 2022)
